Experimental data published in publication PMC2581485, “Ca^2+ Signaling Occurs via Second Messenger Release from Intraorganelle Synthesis Sites” (Current Biology, 2008).

Legend:
recombinant ARCα = target: T1, recombinant ARCα (Strongylocentrotus purpuratus, UniProt A5HNF3); experiment: radiometric TLC of […]cADPR formation; assay type: biochemical; conditions: 16 nM substrate; labelled compound; 1 h, 20 °C; pH varied, acidic pH preferred
T1 construct: gene ARCA

recombinant ARCβ = target: T2, recombinant ARCβ (Strongylocentrotus purpuratus, UniProt A5HNF4); experiment: radiometric TLC of […]cADPR formation; assay type: biochemical; conditions: 16 nM substrate; labelled compound; 1 h, 20 °C; pH varied, acidic pH preferred
T2 construct: gene ARCB
T2 sequence (A5HNF4 entry or part of it): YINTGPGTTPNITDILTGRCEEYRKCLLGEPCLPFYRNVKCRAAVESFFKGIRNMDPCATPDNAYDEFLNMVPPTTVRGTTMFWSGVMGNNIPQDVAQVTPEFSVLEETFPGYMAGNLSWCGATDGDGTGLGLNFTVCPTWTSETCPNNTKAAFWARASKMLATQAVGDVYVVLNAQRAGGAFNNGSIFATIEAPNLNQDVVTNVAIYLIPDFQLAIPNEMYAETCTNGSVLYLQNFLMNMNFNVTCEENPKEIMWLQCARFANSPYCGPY

T1 sequence (A5HNF3 entry or part of it): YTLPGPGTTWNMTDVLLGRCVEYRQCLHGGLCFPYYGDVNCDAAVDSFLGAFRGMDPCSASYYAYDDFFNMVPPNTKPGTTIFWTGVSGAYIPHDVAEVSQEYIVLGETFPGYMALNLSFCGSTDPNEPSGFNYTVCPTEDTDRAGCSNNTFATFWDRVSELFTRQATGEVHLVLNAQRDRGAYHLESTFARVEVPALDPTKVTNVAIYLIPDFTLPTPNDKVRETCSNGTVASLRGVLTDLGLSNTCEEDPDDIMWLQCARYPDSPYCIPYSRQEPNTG

Row | Compound | radiometric TLC of [32P]cADPR formation (recombinant ARCα) | radiometric TLC of [32P]cADPR formation (recombinant ARCβ)
1 | N=c1c2ncn3c2ncn1[C@@H]1O[C@H](COP(=O)(O)OP(=O)(O)OC[C@H]2O[C@@H]3[C@H](O)[C@@H]2O)[C@@H](O)[C@H]1O [cADPR] | recombinant (Figure 3D) and endogenous (Figure 3C) sea urchin ARCs preferentially synthesize cADPR | pH dependency of recombinant ARCα or ARCβ is shown
2 | NC(=O)c1ccc[n+]([C@@H]2O[C@H](COP(=O)([O-])OP(=O)(O)OC[C@H]3O[C@@H](n4cnc5c(N)ncnc54)[C@H](O)[C@@H]3O)[C@@H](O)[C@H]2O)c1 [β-NAD^+] | recombinant (Figure 3D) and endogenous (Figure 3C) sea urchin ARCs preferentially synthesize cADPR | pH dependency of recombinant ARCα or ARCβ is shown
